# Read-outs that look alike come from different tables or passages of the source. *1 amine or outer side, *2 acyl side, *3 side chain or, on linkers, in order; H or OH if unused. Where a SMILES comes first, the peptide text is derived from it. CO = O=C([*:1])[*:2]
# Experiments:
# KP9860 protease [1] = experiment: Effects of surface active agents: residual activity, casein method; type: biochemical, Bacillus sp. KSM-KP9860; conditions: 1% surfactant, 100 mM borate buffer (pH 10.0), 40° C., 4 hours; no treatment = 100%
# Procedure: (§1) After 1 mL of 50 mmol/L of various buffer solutions containing 1% (w/v) Casein (Hammerstein: product of Merck Inc.) was maintained at 40° C. for 5 minutes, 0.1 mL of an enzyme solution was added to the solution, followed by incubation at 40° C. for 10 minutes. 2 mL of a TCA solution (0.11 mol/L trichloroacetic acid: 0.22 mol/L sodium acetate: 0.33 mol/L acetic acid) was added to stop the reaction and the mixture was left to stand at room temperature for 10 minutes. Subsequently, acid-denatured protein was filtered (No. 2 filter paper: product of Whattmann). To 0.5 mL of the filtrate, 2.5 mL of alkaline copper reagent (1% (w/v) sodium potassium tartrate: 1% (w/v) copper sulfate: 2% (w/v) sodium carbonate, 0.1 mol/L sodium hydroxide=1:1:100 (v/v)) was added, and after the solution was maintained at 30° C. for 10 minutes, 0.25 mL of diluted phenol reagent (phenol reagent (product of Kanto Chemical) diluted two-fold with deionized water) was added, and after being maintained at 30° C. for 30 minutes, the solution was subjected to an absorbance measurement at 660 nm. The following solution was used as a blank: to the above-described system of enzyme reaction, a reaction termination solution was mixed and then the enzyme solution was added.
# (§2) An enzyme solution (7.0×10^−4 mP. U.) was added to 100 mmol/L boric acid buffer solution containing dissolved surfactants in an amount of 1%, and the resultant solution was incubated at 40° C. for 4 hours. The solution was diluted 20-fold with 50 mmol/L boric acid buffer solution (pH 10.0), and residual activity was measured using casein as a substrate.
# (§3) Each protease was treated with a variety of 1% surface active agent at 40° C. for 4 hours in […], and residual activity was measured. […] Accordingly, the enzymes are considered to be useful as a detergent component containing surfactants.
# KP43 protease [2] = experiment: as above; type: biochemical, Bacillus sp. KSM-KP43; conditions: 1% surfactant, 100 mM borate buffer (pH 10.0), 40° C., 4 hours; no treatment = 100%
# Procedure: as §1, §2, §3
# KP1790 protease [3] = experiment: as above; type: biochemical, Bacillus sp. KSM-KP1790; conditions: 1% surfactant, 100 mM borate buffer (pH 10.0), 40° C., 4 hours; no treatment = 100%
# KP43 protease [4] = type: biochemical, Bacillus sp. KSM-KP43
# KP1790 protease [5] = experiment: Effects of metal ions: residual activity, casein method; type: biochemical, Bacillus sp. KSM-KP1790
# KP9860 protease [6] = type: biochemical, Bacillus sp. KSM-KP9860
# [7] = tested on: all three kinds of proteases (KP43, KP1790, KP9860); type: biochemical, Bacillus sp.; conditions: pH 7
# KP43 protease [8] = type: biochemical, Bacillus sp. KSM-KP43; conditions: pH 7
# KP9860 protease [9] = experiment: Effects of inhibitors: residual activity, casein method; type: biochemical, Bacillus sp. KSM-KP9860
# KP1790 protease [10] = type: biochemical, Bacillus sp. KSM-KP1790; conditions: pH 7
# [11] = tested on: 3 kinds of proteases (KP43, KP1790, KP9860); experiment: Effects of metal ions, summary for the 3 kinds of proteases; type: biochemical, Bacillus sp.; conditions: 1 mmol/L metal salt, 20 mmol/L boric acid buffer (pH 10), 30° C., 20 minutes
# [12] = 1 mM metal salt, 20 mM borate buffer (pH 10.0), 30° C., 20 minutes, no metal salt = 100%
# [13] = inhibitor 5 mM, 10 mmol/L phosphoric acid buffer (pH 7.0), 30° C., 20 minutes, no inhibitor = 100%
# [14] = inhibitor 0.1 mM, 10 mmol/L phosphoric acid buffer (pH 7.0), 30° C., 20 minutes, no inhibitor = 100%
molecule,measurement,setting,value
α-Sulfofatty acid ester [α-Sulfofatty acid ester (α-SFE)],Residual activity KP9860,KP9860 protease [1],105%
same,Residual activity KP43,KP43 protease [2],112%
same,Residual activity KP1790,KP1790 protease [3],113%
"[Ca+2].[Cl-].[Cl-] [CaCl2, calcium chloride]",Residual activity (%) KP43,KP43 protease [4]; pH 10,97%
same,Residual activity (%) KP1790,KP1790 protease [5]; pH 10,95%
same,Residual activity (%) KP9860,KP9860 protease [6]; pH 10,101%
CC(=O)N[C@@H](CC(C)C)C(=O)N[C@@H](CC(C)C)C(=O)N[C@H](C=O)CCCNC(=N)N [Leupeptin],effect of inhibitor on activity,[7],not found
same,Residual activity (%) KP43,KP43 protease [8],102%
same,Residual activity (%) KP9860,KP9860 protease [9]; pH 7,93%
same,Residual activity (%) KP1790,KP1790 protease [10],101%
Na α-olefinsulfonate [Na α-olefinsulfonate (AOS)],Residual activity KP9860,KP9860 protease [1],100%
same,Residual activity KP43,KP43 protease [2],100%
same,Residual activity KP1790,KP1790 protease [3],111%
Na polyoxyethylene alkylsulfate [Na polyoxyethylene alkylsulfate (ES)],Residual activity KP9860,KP9860 protease [1],104%
same,Residual activity KP43,KP43 protease [2],101%
same,Residual activity KP1790,KP1790 protease [3],102%
Na linear alkylbenzenesulfonate [Na linear alkylbenzenesulfonate (LAS)],Residual activity KP9860,KP9860 protease [1],100%
same,Residual activity KP43,KP43 protease [2],100%
same,Residual activity KP1790,KP1790 protease [3],88%
[Cl][Ni][Cl] [NiCl2],Residual activity (%) KP43,KP43 protease [4]; [12],92%
same,Residual activity (%) KP1790,KP1790 protease [5]; [12],95%
same,Residual activity (%) KP9860,KP9860 protease [6]; [12],96%
c1cnc2c(c1)ccc1cccnc12 [o-Phenanthroline],Residual activity (%) KP43,KP43 protease [8],100%
same,Residual activity (%) KP9860,KP9860 protease [9]; [13],100%
same,Residual activity (%) KP1790,KP1790 protease [10],103%
CoCl2,Residual activity (%) KP43,KP43 protease [4]; pH 10,91%
same,Residual activity (%) KP1790,KP1790 protease [5]; pH 10,101%
same,Residual activity (%) KP9860,KP9860 protease [6]; pH 10,98%
"O=[N+]([O-])[O-].[Ag+] [AgNO3, silver nitrate]",effect of metal salt on activity,[11],inhibited
same,Residual activity (%) KP43,KP43 protease [4]; [12],66%
same,Residual activity (%) KP1790,KP1790 protease [5]; [12],70%
same,Residual activity (%) KP9860,KP9860 protease [6]; [12],45%
[Cl-].[Cl-].[Zn+2] [ZnCl2],Residual activity (%) KP43,KP43 protease [4]; [12],85%
same,Residual activity (%) KP1790,KP1790 protease [5]; [12],94%
same,Residual activity (%) KP9860,KP9860 protease [6]; [12],91%
"CCCCCCCCCCCCOS(=O)(=O)[O-].[Na+] [Na dodecyl sulfate (SDS), Na dodecyl sulfate]",Residual activity KP9860,KP9860 protease [1],103%
same,Residual activity KP43,KP43 protease [2],104%
same,Residual activity KP1790,KP1790 protease [3],97%
"O=C(O)CN(CCN(CC(=O)O)CC(=O)O)CC(=O)O [EDTA, ethylenediaminetetraacetic acid]",Residual activity (%) KP43,KP43 protease [8],110%
same,Residual activity (%) KP9860,KP9860 protease [9]; [13],101%
same,Residual activity (%) KP1790,KP1790 protease [10],97%
"[Cl][Hg][Cl] [HgCl2, mercury chloride]",effect of metal salt on activity,[11],inhibited
same,Residual activity (%) KP43,KP43 protease [4]; [12],38%
same,Residual activity (%) KP1790,KP1790 protease [5]; [12],37%
same,Residual activity (%) KP9860,KP9860 protease [6]; [12],33%
CC(C)[C@H](NC(=O)[C@H](CCCNC(=N)N)NC(=O)N[C@@H](Cc1ccccc1)C(=O)O)C(=O)N[C@H](C=O)CCCNC(=N)N [Antipine] ({Phe-CO}-Arg-Val-Arg-aldehyde),effect of inhibitor on activity,[7],not found
same,Residual activity (%) KP43,KP43 protease [8],103%
same,Residual activity (%) KP9860,KP9860 protease [9]; [14],97%
same,Residual activity (%) KP1790,KP1790 protease [10],99%
[Cl][Cu][Cl] [CuCl2],Residual activity (%) KP43,KP43 protease [4]; [12],91%
same,Residual activity (%) KP1790,KP1790 protease [5]; [12],96%
same,Residual activity (%) KP9860,KP9860 protease [6]; [12],94%
"O=C(O)c1cc[c]([Hg][Cl])cc1 [PCMB, p-chloromercury benzoate]",Residual activity (%) KP43,KP43 protease [8],125%
same,Residual activity (%) KP9860,KP9860 protease [9]; pH 7,126%
same,Residual activity (%) KP1790,KP1790 protease [10],115%
"O[C@H](CS)[C@H](O)CS (racemic) [DTT, dithiothreitol]",Residual activity (%) KP43,KP43 protease [8],104%
same,Residual activity (%) KP9860,KP9860 protease [9]; [13],105%
same,Residual activity (%) KP1790,KP1790 protease [10],102%
CC(C)C[C@H](NC(=O)[C@H]1O[C@@H]1C(=O)O)C(=O)NCCCCN=C(N)N [E-64],Residual activity (%) KP43,KP43 protease [8],104%
same,Residual activity (%) KP9860,KP9860 protease [9]; pH 7,103%
same,Residual activity (%) KP1790,KP1790 protease [10],99%
[Cl][Fe]([Cl])[Cl] [FeCl3],Residual activity (%) KP43,KP43 protease [4]; [12],93%
same,Residual activity (%) KP1790,KP1790 protease [5]; [12],113%
same,Residual activity (%) KP9860,KP9860 protease [6]; [12],96%
"O=S(=O)(F)Cc1ccccc1 [PMSF, phenylmethanesulfonyl fluoride]",effect of inhibitor on activity,[7],inhibited
same,Residual activity (%) KP43,KP43 protease [8],0%
same,Residual activity (%) KP9860,KP9860 protease [9]; pH 7,0%
same,Residual activity (%) KP1790,KP1790 protease [10],0%
CC(C)C[C@H](NC(=O)[C@@H](NC(=O)N[C@@H](Cc1ccccc1)C(=O)O)[C@@H]1CCN=C(N)N1)C(=O)N[C@H](C=O)Cc1ccccc1 [Chymostatin],effect of inhibitor on activity,[7],inhibited
same,Residual activity (%) KP43,KP43 protease [8],87%
same,Residual activity (%) KP9860,KP9860 protease [9]; pH 7,80%
same,Residual activity (%) KP1790,KP1790 protease [10],87%
[Cl-].[Cl-].[Mg+2] [MgCl2],Residual activity (%) KP43,KP43 protease [4]; [12],92%
same,Residual activity (%) KP1790,KP1790 protease [5]; [12],103%
same,Residual activity (%) KP9860,KP9860 protease [6]; [12],100%
"O=C(O)CN(CCOCCOCCN(CC(=O)O)CC(=O)O)CC(=O)O [EGTA, ethyleneglycoltetraacetic acid]",Residual activity (%) KP43,KP43 protease [8],92%
same,Residual activity (%) KP9860,KP9860 protease [9]; [13],90%
same,Residual activity (%) KP1790,KP1790 protease [10],91%
Na alkyl sulfate [Na alkyl sulfate (AS)],Residual activity KP9860,KP9860 protease [1],107%
same,Residual activity KP43,KP43 protease [2],113%
same,Residual activity KP1790,KP1790 protease [3],107%
CC(C)C[C@H](NC(=O)N[C@H](C(=O)N[C@@H](CCC(N)=O)C(=O)N[C@@H](C)C=O)[C@@H]1CCNC(=N)N1)C(=O)O [Elastatinal],Residual activity (%) KP43,KP43 protease [8],99%
same,Residual activity (%) KP9860,KP9860 protease [9]; [14],102%
same,Residual activity (%) KP1790,KP1790 protease [10],102%
"CCN1C(=O)C=CC1=O [NEM, N-ethylmaleimide]",Residual activity (%) KP43,KP43 protease [8],97%
same,Residual activity (%) KP9860,KP9860 protease [9]; pH 7,100%
same,Residual activity (%) KP1790,KP1790 protease [10],100%

# From patent US6759228B2, “Alkaline protease” (Kao Corporation, priority 1997, dated 2004)
